From patent publication US11878012B2, “Compositions and methods for treating traumatic brain injury” (Board of Regents, the University of Texas System, priority 2020, dated 2024)

How the values were obtained:
DGGCs [1] = experiment: Ca2+ imaging with calcium green-1 in DGGCs of hippocampal slices, whole-cell mode; type: cell-based, mice; details: for peak calcium green-1 fluorescence increase: M1R stimulation
Method: (§1) Hippocampal Slice Preparation. […] Hippocampal slices were maintained in oxygenated ACSF at 30° C. for 60 min and experiments were performed at 25° C.
Ca2^+ Imaging. Concurrent with patch-clamp electrophysiology, neurons in slices were also imaged (Nikon FN-1, 40× water-immersion objective) via the fluorescent Ca^2+-reporter dye calcium green-1. As a hexapotassium salt, the dye (10 μm) was added to the intracellular patch pipette solution and neurons were patched under whole-cell clamp, as described above. Cells were loaded for 10 min before image acquisition. Fluorescence intensity was obtained using a SOLA Light Engine illumination source (Lumencor) with an output of 3.5 W through a 3-mm-diameter liquid light guide through a Nikon ET-GFP filter. Nikon Elements software was used for image acquisition through a QIClick CCD camera (QImaging). Images were acquired with an exposure time of 200 ms every 2 min using a single-channel, 12-bit rate and no binning. The shutter was closed between each acquisition. For each cell, the corrected total cell fluorescence was measured as the integrated density intensity—(cell area*mean background emission). Ca^2+ signals were measured as the change in fluorescence relative to the baseline fluorescence (ΔF/F0). Averages of four images were thresholded at 10%, masked using a highly averaged image of the cell, and encoded with a pseudocolor look-up table. Group cell fluorescence data were averaged in comparison with normalized intensity at each time point.

DGGCs [2] = experiment: Patch-clamp / current-clamp recordings of DGGCs in hippocampal slices (action potentials, AHP, IM amplitude); type: cell-based, mice
Method: as §1

DGGCs [3] = experiment: GCaMP6f brain slice Ca2+ imaging of DGGCs after sham or CCI-TBI; type: cell-based, mice; details: for Ca2+ influx events per neuron: 0.3 mM ACh 5 min; for duration of Ca2+ influx / peak amplitude of Ca2+ influx: ACh
Description: Neuromodulation of TRPC generates robust Ca2+ influx and facilitates neuronal hyperexcitability. […] To assess the post-injury effect of TRPC channel upregulation on neurons, we used Ca2+ imaging in brain slice to measure excitability as a product of intracellular Ca2+ gating by TRPC1/4/5 channels (FIG. 4). […] Transgenic mice with the GCaMP6f transgene were used to detect changes in cellular Ca2+-activated fluorescence. We hypothesized that DGGC activity increases due to muscarinic stimulation with ACh or direct activation of TRPC4-containing channels with EA. Sensitivity was tested by bath perfusion of ACh or EA to the slice for 5 minutes during Ca2+ imaging to quantify peak amplitude of GCaMP6f fluorescence per cell, duration of Ca2+ influx, and the field-frequency of events (FIG. 4).
Brain slice Ca2+ imaging. Transverse slices (300 μm) of hippocampus were cut with a vibratome (Thermo Scientific Microm HM650V) from Cre-CamK2+/GCamp6f+/− mice. […] Hippocampal slices were maintained in oxygenated ACSF at 30° C. for 60 min, and experiments performed at 28° C. […] Neurons were visually identified with a Nikon FN-1 microscope equipped with a 40× water-immersion objective and infrared differential interference contrast. GCaMP6f fluorescence was obtained using a SOLA Light Engine Illumination source (Lumecor) with an output of 3.5W through a 3 mm diameter liquid light guide through a Nikon ET-GFP filter. Nikon Elements software was used for image acquisition through a QIClick CCD camera (Qlmaging) with a Uniblitz Model VMM-D 1 shutter driver. Baseline time series of the DG granule layer were acquired in the presence of bath solution perfusion for 2 min. […] Images were acquired in time series with an exposure time of 200 ms at 2-10 fps at 12-bit rate and no binning. Time-series image stacks were processed with ImageJ. Images were background subtracted using the mean of the 5% lowest pixel values. Ca2+ signal events were quantified for each cell as change in fluorescence divided by the baseline fluorescence (ΔF/FO) after background subtraction. ROI signals were detrended before quantification to account for drift due to gradual photobleaching of the background.

TRPC4/5 channels = details: description from literature; cited from earlier work
other TRPC channels = details: description; cited from earlier work
seizure susceptibility [4] = experiment: Single subconvulsant PTZ challenge 7 days after CCI-TBI; type: in vivo, mice; details: PTZ 50 mg/kg single dose 7 days after TBI, n=14
Description: TBI facilitates TRPC-dependent seizure susceptibility.
Controlled cortical impact traumatic brain injury. […] Apnea episodes lasted between 10-60 sec after impact.
Seizure susceptibility assays. Pentylenetetrazol kindling model.

seizure susceptibility [5] = experiment: PTZ kindling after sham or CCI-TBI
Method: The fact that only a portion of TBI cases become susceptible to epileptic seizures is a yet unanswered phenomenon in both preclinical and clinical studies. Therefore, we investigated seizure susceptibility within the CCI-TBI model to gain a greater understanding as to the etiology of hyperexcitability spread occurring post-injury. […] In our seizure susceptibility paradigm, 1 or 7 days after experimental procedure, mice were challenged with a subconvulsant dose of PTZ (35 mg/kg s.c.) once-daily to elicit kindling epileptogenesis (FIG. 6A). The progression of motor seizure behavior was observed and timed by direct observation linked to EEG activity (FIG. 6B).
We wished to understand if the TRPC channel upregulation after TBI could be targeted to impede epileptogenic activity. […] Seizure susceptibility was standardized according to the latency to forelimb clonus lasting greater than 5 sec.
Controlled cortical impact traumatic brain injury. The controlled cortical impact (CCI) traumatic brain injury (TBI) model was applied, with a closed skull impact approach. The CCI model causes TBI, but the skull remains intact with minimal hematoma. This type of brain injury model most closely simulates the TBI experienced during blunt-head injuries from vehicular accidents or falls. Mice were anesthetized with isoflurane (3% induction, 1% maintenance) in 100% O2. Body temperature of 37° C. was maintained using a temperature-controlled heated surgical table. The skull was fixed with ear-bars into a stereotaxic frame. A small midline incision was made on the scalp using aseptic surgical techniques. Impact was delivered by cylindrical probe of 5 mm diameter with an Impact One neurotrauma impactor (Leica Biosystems). A calibrated impact was delivered at 4.5 m/sec to a depth of 1 mm and 0.5 sec dwell time to the right parietal cortex (−1.8 mm ML, +2.0 mm AP, −1.0 mm DV). […] The scalp was then sutured closed and mice were placed in a warming recirculation unit and monitored until fully awake and moving freely. […] For consistency, the left hemisphere of both sham and TBI mice is designated as “contralateral” brain, and the right hemisphere is referred to as “ipsilateral”, despite no impact injury occurring in sham mice.
In vivo electroencephalograms. To determine seizure frequency and record brain susceptibility to seizures, mice were implanted with electroencephalogram (EEG) electrodes 24 hr after sham or TBI. A three-channel tethered EEG system was used. The electrode pedestal (P1 Technologies) was secured to the skull with three anchored dental screws and connected to a preamplifier with gain of 25. The three leads were inserted over the left frontal cortex, left parietal cortex, and depth electrode lead into the hippocampus. The Stellate Harmonie acquisition hardware and software were used to collect coincident video and EEG activity. EEGs were inspected for presence of epileptiform spikes and seizures.
Seizure susceptibility assays. Pentylenetetrazol kindling model. Seizure susceptibility was tested with the GABAA receptor antagonist pentylenetetrazol (PTZ) for progression of motor seizure activity. Mice were injected with PTZ (35 mg/kg, s.c.) once per day and scored for motor behavioral seizures.

TRPC1/4/5 channels = details: Rubaiy et al., 2017; cited from earlier work
[6] = TRPC4/5 channels blocked, control or plus 77-LH-28-1 3 μM
[7] = PTZ daily from 1 day post-TBI, TBI
[8] = PTZ daily from 1 day post-procedure, sham
[9] = PTZ daily from 7 days after TBI, TBI
[10] = PTZ daily from 7 days after procedure, sham
[11] = IP3 receptor blockade, xestospongin C 10 μm

CCCCC1CCN(CCCN2C(=O)CCc3ccccc32)CC1 [77-LH-28-1]
peak calcium green-1 fluorescence increase (DGGCs [1]; 77-LH-28-1 3 μm): 2.91±0.41 fold
peak calcium green-1 fluorescence increase (DGGCs [1]; 77-LH-28-1 10 μm): 4.27±0.95 fold
enhancement of IM amplitude (DGGCs [2]; 77-LH-28-1 3 μm with TRPC4/5 channels blocked): 1.83 ±0.14 fold
action potential firing rate (DGGCs [2]; 77-LH-28-1 3 μm, no TRPC4/5 blocker): significantly increased
enhancement of IM amplitude (DGGCs [2]; M1R stimulation in the absence of TRPC4/5 channel blockers): 1.92±0.10 fold
action potential threshold (DGGCs [2]; M084 10 μm + 77-LH-28-1 3 μm, n=8 cells): −46.1±1.5 mV
AHP amplitude (DGGCs [2]; [6]): 13.6 ± 0.9 mV
AHP area (DGGCs [2]; [6]): 264.8 ± 21.5 ms* mV
AHP decay (DGGCs [2]; [6]): 17.1 ± 0.8 ms

CC(=O)OCC[N+](C)(C)C [ACh, acetylcholine]
Ca2+ influx events per neuron (DGGCs [3]; contralateral TBI): 2.6±0.2 events/neuron
Ca2+ influx events per neuron (DGGCs [3]; ipsilateral TBI): 4.3±0.2 events/neuron
Ca2+ influx events per neuron (DGGCs [3]; sham control tissue): 1.8±0.3 events/neuron
duration of Ca2+ influx (DGGCs [3]; contralateral DGGCs): 6.12 ± 0.19 s
peak amplitude of Ca2+ influx (DGGCs [3]; contralateral DGGCs): 1.70±0.12 ΔF/F
duration of Ca2+ influx (DGGCs [3]; ipsilateral DGGCs): 8.51 ± 0.20 s
peak amplitude of Ca2+ influx (DGGCs [3]; ipsilateral TBI DGGCs): 4.31±0.58 ΔF/F

Cc1cc(N2CCCCC2)nc2ccccc12 [ML204, 4-Methyl-2-(1-piperidinyl)quinolone]
effect on TRPC4/5 channels (TRPC4/5 channels): selectively inhibit
blockage of other TRPC channels (other TRPC channels): no appreciable blockage
maximum calcium-green 1 emission on muscarinic stimulation (DGGCs [1]; M084 and ML204 together, 10 μm): 1.61±0.21 fold

C1CCc2nnnn2CC1 [PTZ, pentylenetetrazol]
mice acquiring myoclonic jerks (seizure susceptibility [4]): 100%
mice with forelimb clonus seizures (seizure susceptibility [4]): 86%
latency to myoclonic jerks (seizure susceptibility [5]; PTZ 35 mg/kg s.c. daily from 1 day post-TBI, TBI): 4.4 ± 0.6 days
latency to myoclonic jerks (seizure susceptibility [5]; PTZ 35 mg/kg s.c. daily from 1 day post-procedure, sham): 9.5 ± 0.6 days
latency to forelimb clonus (seizure susceptibility [5]; [7]): 5.6 ± 0.7 days
latency to tonic-clonic seizure (seizure susceptibility [5]; [7]): 7.9 ± 0.7 days
latency to forelimb clonus (seizure susceptibility [5]; [8]): 11.3 ± 0.7 days
latency to tonic-clonic seizure (seizure susceptibility [5]; [8]): 12.5 ± 0.8 days
latency to forelimb clonus (seizure susceptibility [5]; [9]): 4.3 ± 0.8 days
latency to myoclonic jerks (seizure susceptibility [5]; [9]): 3.6 ± 0.7 days
latency to tonic-clonic seizure (seizure susceptibility [5]; [9]): 5.6 ± 1.2 days
latency to forelimb clonus (seizure susceptibility [5]; [10]): 12.0 ± 0.6 days
latency to myoclonic jerks (seizure susceptibility [5]; [10]): 9.8 ± 0.4 days
latency to tonic-clonic seizure (seizure susceptibility [5]; [10]): 13.1 ± 0.6 days
mice with lethal seizures on second tonic-clonic occurrence (seizure susceptibility [5]; PTZ kindling from 1 day post-TBI, TBI group): five out of eight

Cn1c(=O)n(CCCO)c(=O)c2c1nc(Oc1cccc(OC(F)(F)F)c1)n2Cc1ccc(Cl)cc1 [Pico145]
potency on TRPC1/4/5 channels (TRPC1/4/5 channels): picomolar potency

CCCCCCCCCCCCCCCCCCOCC(COP(=O)([O-])OCC[N+](C)(C)C)OC (stereo not drawn) [edelfosine]
maximum dye emission over that before agonist (DGGCs [1]; slices preincubated with edelfosine 10 μm, then 77-LH-28-1): 1.15±0.08 fold

C1CCC[C@H]2CCCN3CC[C@@H](CCCCCC[C@@H]4CCCN5CC[C@@H](CC1)O[C@@H]45)O[C@@H]23 [xestospongin C]
rises in [Ca2+]i on mAChR stimulation (DGGCs [1]; [11]): substantial rises
action potential firing frequency on mAChR stimulation (DGGCs [2]; [11]): increased action potential firing frequency
M1R-mediated enhancement of IM (DGGCs [2]; xestospongin C 10 μm in the pipette): 1.67±0.14 fold
